In patent US20260022142A1, “MACROCYCLIC IMMUNOMODULATORS” (Bristol-Myers Squibb Company, priority 2022, published 2026):
Bridge positions count the residues as written; N and C are the ends. Square brackets hold non-standard residues; d marks the D form. Peptide text beside a SMILES is read from it. * marks the point of attachment. ξ: configuration not given here. Bip = N[C@@H](Cc1ccc(-c2ccccc2)cc1)C(=O)O; Phe(3-Me) = Cc1cccc(C[C@H](N)C(=O)O)c1; hArg = N=C(N)NCCCC[C@H](N)C(=O)O; Cha = N[C@@H](CC1CCCCC1)C(=O)O; Cit = NC(=O)NCCC[C@H](N)C(=O)O; Thr(3ξ) = CC(O)[C@H](N)C(=O)O; Carboxymethyl = O=C(O)C*; Orn = NCCC[C@H](N)C(=O)O; Aun = NCCCCCCCCCCC(=O)O; Dab = NCC[C@H](N)C(=O)O

Target: T1, PD-1/PD-L1 interaction (PE-labeled human PD-L1-Ig binding to Jurkat cell line over-expressing human PD-1) (Homo sapiens, UniProt Q15116)
T1 construct: expressed in transfected cells; host or cells: Jurkat
T1 sequence (Q15116 25-288): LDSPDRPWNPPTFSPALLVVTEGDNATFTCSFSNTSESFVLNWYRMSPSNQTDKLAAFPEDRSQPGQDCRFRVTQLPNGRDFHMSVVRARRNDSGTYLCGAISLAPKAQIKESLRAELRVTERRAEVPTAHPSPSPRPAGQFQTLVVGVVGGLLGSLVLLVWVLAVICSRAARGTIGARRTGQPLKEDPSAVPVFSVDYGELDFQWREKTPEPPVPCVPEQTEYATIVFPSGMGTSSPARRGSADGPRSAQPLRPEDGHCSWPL
Assay: Jurkat-PD-1 Cell Binding High-Content Screening Assay (CBA)
Type: cell-based
Details: Jurkat cell line over-expressing human PD-1; PE-labeled PD-L1-Ig 20 nM final; read-out: Jurkat hPD1-PDL1 IC50
Method in brief: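 Binding of fluorescent PD-L1-Ig (20 nM final) to Jurkat-PD-1 cells was measured by automated imaging after 1 h, following a 2 h compound pre-treatment at 37° C.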

IC50	Compound
17.4 nM	Cc1cccc(C[C@@H]2NC(=O)[C@H](CC(=O)O)NC(=O)[C@H](Cc3ccc(OCC(=O)O)cc3)NC(=O)[C@H](CCCNC(=N)N)NC(=O)CSC[C@@H](C(=O)N[C@@H](CCN)C(=O)NCCCCCCCCCCC(=O)O)NC(=O)[C@H](C(C)O)NC(=O)[C@H](C(C)C)NC(=O)[C@H](CC3CCCCC3)NC(=O)[C@H](CCN)NC(=O)[C@@H](CC(C)C)NC(=O)[C@H](CCCN)NC(=O)[C@H](CCCNC(N)=O)NC(=O)[C@H](Cc3ccc(-c4ccccc4)cc3)NC(=O)[C@H](C(C)C)NC2=O)c1 (stereo partly drawn) [Compound 3301] ({CH2CO}-RY(Carboxymethyl)D[Phe(3-Me)]V[Bip][Cit][Orn][dL][Dab][Cha]V[Thr(3ξ)]C[Dab][Aun]-OH; thioether N-14)
14.1 nM	Cc1cccc(C[C@@H]2NC(=O)[C@H](CC(=O)O)NC(=O)[C@H](Cc3ccc(OCC(=O)O)cc3)NC(=O)[C@H](CCCCNC(=N)N)NC(=O)CSC[C@@H](C(=O)N[C@@H](CCN)C(=O)NCCCCCCCCCCC(=O)O)NC(=O)[C@H](C(C)O)NC(=O)[C@H](C(C)C)NC(=O)[C@H](CC3CCCCC3)NC(=O)[C@H](CCN)NC(=O)[C@@H](CC(C)C)NC(=O)[C@H](CCCN)NC(=O)[C@H](CCCNC(N)=O)NC(=O)[C@H](Cc3ccc(-c4ccccc4)cc3)NC(=O)[C@H](C(C)C)NC2=O)c1 (stereo partly drawn) [Compound 3302] ({CH2CO}-[hArg]Y(Carboxymethyl)D[Phe(3-Me)]V[Bip][Cit][Orn][dL][Dab][Cha]V[Thr(3ξ)]C[Dab][Aun]-OH; thioether N-14)
15.1 nM	Cc1cccc(C[C@@H]2NC(=O)[C@H](CC(=O)O)NC(=O)[C@H](Cc3ccc(OCC(=O)O)cc3)NC(=O)[C@H](CCCNC(=N)N)NC(=O)CSC[C@@H](C(=O)N[C@@H](CCN)C(=O)NCCCCCCCCCCC(=O)O)NC(=O)[C@H](C(C)O)NC(=O)[C@H](C(C)C)NC(=O)[C@H](CC3CCCCC3)NC(=O)[C@H](CCN)NC(=O)[C@@H](CC(C)C)NC(=O)[C@H](CCCN)NC(=O)[C@H](CCCN)NC(=O)[C@H](Cc3ccc(-c4ccccc4)cc3)NC(=O)[C@H](C(C)C)NC2=O)c1 (stereo partly drawn) [Compound 3303] ({CH2CO}-RY(Carboxymethyl)D[Phe(3-Me)]V[Bip][Orn][Orn][dL][Dab][Cha]V[Thr(3ξ)]C[Dab][Aun]-OH; thioether N-14)
14.2 nM	Cc1cccc(C[C@@H]2NC(=O)[C@H](CC(=O)O)NC(=O)[C@H](Cc3ccc(OCC(=O)O)cc3)NC(=O)[C@H](CCCNC(=N)N)NC(=O)CSC[C@@H](C(=O)N[C@@H](CCN)C(=O)NCCCCCCCCCCC(=O)O)NC(=O)[C@H](C(C)O)NC(=O)[C@H](C(C)C)NC(=O)[C@H](CC3CCCCC3)NC(=O)[C@H](CCN)NC(=O)[C@@H](CC(C)C)NC(=O)[C@H](CCCNC(N)=O)NC(=O)[C@H](CCCN)NC(=O)[C@H](Cc3ccc(-c4ccccc4)cc3)NC(=O)[C@H](C(C)C)NC2=O)c1 (stereo partly drawn) [Compound 3304] ({CH2CO}-RY(Carboxymethyl)D[Phe(3-Me)]V[Bip][Orn][Cit][dL][Dab][Cha]V[Thr(3ξ)]C[Dab][Aun]-OH; thioether N-14)
6.5 nM	Cc1cccc(C[C@@H]2NC(=O)[C@H](CC(=O)O)NC(=O)[C@H](Cc3ccc(OCC(=O)O)cc3)NC(=O)[C@H](CCCNC(=N)N)NC(=O)CSC[C@@H](C(=O)N[C@@H](CCN)C(=O)NCCCCCCCCCCC(=O)O)NC(=O)[C@H](CCCNC(N)=O)NC(=O)[C@H](C(C)C)NC(=O)[C@H](CC3CCCCC3)NC(=O)[C@H](CCN)NC(=O)[C@@H](CC(C)C)NC(=O)[C@H](CCCN)NC(=O)[C@H](CCC(N)=O)NC(=O)[C@H](Cc3ccc(-c4ccccc4)cc3)NC(=O)[C@H](C(C)C)NC2=O)c1 [Compound 3305] ({CH2CO}-RY(Carboxymethyl)D[Phe(3-Me)]V[Bip]Q[Orn][dL][Dab][Cha]V[Cit]C[Dab][Aun]-OH; thioether N-14)
